Source: publication PMC3894639 (Pharmacogenetics and genomics, 2013)
Counter-ions that a name gives are not always drawn. Like-named read-outs stand apart in the source and are kept apart here.

Columns and labels:
OATP1B1 [1] = target: T1, OATP1B1 (Homo sapiens, UniProt Q9Y6L6); assay: Prediction of clinical drug-drug interactions; settings: for R (CER): cerivastatin as substrate; for Iin,max: Fa 1, Ka 0.1/min, Qh 1500 ml/min
T1 sequence (Q9Y6L6 1-691): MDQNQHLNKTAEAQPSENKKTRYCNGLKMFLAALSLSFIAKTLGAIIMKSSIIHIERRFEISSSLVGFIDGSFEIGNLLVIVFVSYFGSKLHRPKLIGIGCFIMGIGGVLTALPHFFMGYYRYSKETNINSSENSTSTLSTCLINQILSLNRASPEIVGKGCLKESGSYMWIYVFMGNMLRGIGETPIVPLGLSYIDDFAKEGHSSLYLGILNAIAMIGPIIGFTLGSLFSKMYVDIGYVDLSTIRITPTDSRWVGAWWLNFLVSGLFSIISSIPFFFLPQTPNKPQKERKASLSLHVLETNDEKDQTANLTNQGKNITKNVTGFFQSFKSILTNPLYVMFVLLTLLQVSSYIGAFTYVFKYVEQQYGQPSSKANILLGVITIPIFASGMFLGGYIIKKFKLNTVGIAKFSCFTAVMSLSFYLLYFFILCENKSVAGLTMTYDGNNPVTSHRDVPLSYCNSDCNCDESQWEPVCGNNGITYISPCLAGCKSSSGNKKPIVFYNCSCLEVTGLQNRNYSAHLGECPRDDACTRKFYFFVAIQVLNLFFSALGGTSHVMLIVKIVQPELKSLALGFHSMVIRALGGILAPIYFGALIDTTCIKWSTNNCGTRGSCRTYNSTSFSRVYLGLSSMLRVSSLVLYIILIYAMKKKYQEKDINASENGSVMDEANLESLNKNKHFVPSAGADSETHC

OATP1B1 [2] = target: T1, OATP1B1
[3] = protein unbound fraction; ref literature; cited from earlier work
[4] = cited from earlier work
OATP1B1 [5] = target: T1, OATP1B1; remark: listed apart in the source
[6] = test system: cerivastatin-induced rhabdomyolysis; settings: cited from earlier work
[7] = 20 nmol/l [3H]-ES, concentrations up to 100 µmol/l
[8] = 5 nmol/l [3H]-CER, concentrations up to 100 µmol/l
[9] = concentrations up to 3 µmol/l, limited by solubility
[10] = R=1+fu×Iin,max/IC50, ES as substrate, oral dose listed per drug in Table 3
[11] = at the oral dose listed per drug in Table 3 (clopidogrel 75 mg)

Compound	IC50 (OATP1B1 [2])	Inhibition of OATP1B1-mediated uptake of ES (in words) (OATP1B1 [2]; [7])	IC50 (OATP1B1 [5])	Inhibition of OATP1B1-mediated uptake of cerivastatin (in words) (OATP1B1 [5]; [8])	R (ES) (OATP1B1 [1]; [10])	other results
COC(=O)[C@H](c1ccccc1Cl)N1CCC2SC(=O)C=C2C1 (stereo partly shown) [2-Oxo clopidogrel, 2-oxo clopidogrel]	8.97 µM	inhibited	8.18 µM	inhibited		R (ES) (OATP1B1 [1]; ES as substrate, clopidogrel oral dose 600 mg): 1.26; R (CER) (OATP1B1 [1]; clopidogrel oral dose 600 mg): 1.29; Iin,max (OATP1B1 [1]; clopidogrel oral dose 600 mg): 118.69 µmol/L; fu [3]: 0.02; Cmax ([4]; clopidogrel oral dose 600 mg): 0.05 ng/mL
CCOC(=O)C1=C(COCCN)NC(C)=C(C(=O)OC)C1c1ccccc1Cl (stereo not shown) [Amlodipine, amlodipine]	39.6 µM		35.5 µM			
Cc1ccc(-c2cc(C(F)(F)F)nn2-c2ccc(S(N)(=O)=O)cc2)cc1 [Celecoxib, celecoxib]		did not inhibit		did not inhibit		
O=C(O)[C@H]1O[C@@H](OC(=O)[C@H](c2ccccc2Cl)N2CCc3sccc3C2)[C@H](O)[C@@H](O)[C@@H]1O [Clopidogrel acyl glucuronide, clopidogrel acyl glucuronide]		inhibited		inhibited		
COC(=O)[C@H](c1ccccc1Cl)N1CCc2sccc2C1 [Clopidogrel, Clopidogrel hydrogen sulfate]		inhibited	3.95 µM	inhibited		R (CER) (OATP1B1 [1]; clopidogrel oral dose 600 mg): 1.63; Iin,max (OATP1B1 [1]; clopidogrel oral dose 600 mg): 124.40 µmol/L; IC50 at 5 min (OATP1B1 [2]; human, probe [3H]-estrone-3-sulfate, 20 nmol/l): > 100 µM; Cmax ([4]; clopidogrel oral dose 600 mg): 31.4 ng/mL; inhibition at 5 min, 100 µmol/l (OATP1B1 [5]; human, probe [3H]-cerivastatin, 5 nmol/l): 52.7%; Odds ratio for cerivastatin-induced rhabdomyolysis ([6]; clopidogrel use in the absence of gemfibrozil use, 95% CI 12.5-182): 47.8; Odds ratio for cerivastatin-induced rhabdomyolysis ([6]; clopidogrel use in the presence of gemfibrozil use, 95% CI 6.1-143): 29.6
C[C@]1(O)CC[C@H]2[C@@H]3CCC4=CC(=O)CC[C@]4(C)[C@@]3(F)[C@@H](O)C[C@@]21C [Fluoxymesterone]						Inhibition of OATP1B1-mediated uptake of ES (in words) (OATP1B1 [2]; [9]): no inhibitory effects; Inhibition of OATP1B1-mediated uptake of cerivastatin (in words) (OATP1B1 [5]; [9]): no inhibitory effects
COc1ccc(Cl)cc1C(=O)NCCc1ccc(S(=O)(=O)NC(=O)NC2CCCCC2)cc1 [Glyburide, glyburide]						fu [3]: 0.002
N[C@@H](Cc1cc(I)c(Oc2cc(I)c(O)c(I)c2)c(I)c1)C(=O)O [Levothyroxine, levothyroxine]	2.04 µM	inhibited	0.88 µM	inhibited	1.00	fu [3]: 0.01; Cmax [4, 11]: 591 ng/mL
CC(C)(O)c1ccccc1CC[C@@H](SCC1(CC(=O)O)CC1)c1cccc(/C=C/c2ccc3ccc(Cl)cc3n2)c1 [Montelukast, montelukast sodium]	1.4 µM	inhibited	2.04 µM	inhibited	1.01	Cmax ([4]; in vivo, po, 75 mg): 542 ng/mL
CCc1ccc(CCOc2ccc(CC3SC(=O)NC3=O)cc2)nc1 (stereo not shown) [Pioglitazone, pioglitazone hydrochloride]	6.8 µM	inhibited	39.6 µM	inhibited	1.01	Cmax ([4]; in vivo, po, 75 mg): 1500 ng/mL
CO[C@H]1/C=C/O[C@@]2(C)Oc3c(C)c(O)c4c(O)c(c(/C=N/N5CCN(C)CC5)c(O)c4c3C2=O)NC(=O)/C(C)=C\C=C\[C@H](C)[C@H](O)[C@@H](C)[C@@H](O)[C@@H](C)[C@H](OC(C)=O)[C@@H]1C [Rifampin, rifampin]	0.88 µM		5.65 µM		8.56	Cmax [4, 11]: 10000 ng/mL
CS(=O)(=O)c1ccc(C2=C(c3ccccc3)C(=O)OC2)cc1 [Rofecoxib, rofecoxib]	5.65 µM	inhibited	1.17 µM	inhibited	1.15	Cmax [4, 11]: 320 ng/mL
CN(CCOc1ccc(CC2SC(=O)NC2=O)cc1)c1ccccn1 (stereo not shown) [Rosiglitazone, Rosiglitazone-potassium salt]	4.27 µM		43.4 µM			Cmax [4, 11]: 598 ng/mL
CCCCC1=NC2(CCCC2)C(=O)N1Cc1ccc(-c2ccccc2-c2nnn[nH]2)cc1 [irbesartan, Irbesartan]		did not inhibit		did not inhibit		
Cc1c(OCC(F)(F)F)ccnc1C[S+]([O-])c1nc2ccccc2[nH]1 (stereo not shown) [lansoprazole]		did not inhibit		did not inhibit		
